Here are results for one compound from BindingDB's records for patent US20260001833 (The Cleveland Clinic Foundation, 2026).

This assay has as its target T1, Choline trimethylamine-lyase (UniProt A0AAJ0YC41).
T1 sequence (A0AAJ0YC41 whole entry): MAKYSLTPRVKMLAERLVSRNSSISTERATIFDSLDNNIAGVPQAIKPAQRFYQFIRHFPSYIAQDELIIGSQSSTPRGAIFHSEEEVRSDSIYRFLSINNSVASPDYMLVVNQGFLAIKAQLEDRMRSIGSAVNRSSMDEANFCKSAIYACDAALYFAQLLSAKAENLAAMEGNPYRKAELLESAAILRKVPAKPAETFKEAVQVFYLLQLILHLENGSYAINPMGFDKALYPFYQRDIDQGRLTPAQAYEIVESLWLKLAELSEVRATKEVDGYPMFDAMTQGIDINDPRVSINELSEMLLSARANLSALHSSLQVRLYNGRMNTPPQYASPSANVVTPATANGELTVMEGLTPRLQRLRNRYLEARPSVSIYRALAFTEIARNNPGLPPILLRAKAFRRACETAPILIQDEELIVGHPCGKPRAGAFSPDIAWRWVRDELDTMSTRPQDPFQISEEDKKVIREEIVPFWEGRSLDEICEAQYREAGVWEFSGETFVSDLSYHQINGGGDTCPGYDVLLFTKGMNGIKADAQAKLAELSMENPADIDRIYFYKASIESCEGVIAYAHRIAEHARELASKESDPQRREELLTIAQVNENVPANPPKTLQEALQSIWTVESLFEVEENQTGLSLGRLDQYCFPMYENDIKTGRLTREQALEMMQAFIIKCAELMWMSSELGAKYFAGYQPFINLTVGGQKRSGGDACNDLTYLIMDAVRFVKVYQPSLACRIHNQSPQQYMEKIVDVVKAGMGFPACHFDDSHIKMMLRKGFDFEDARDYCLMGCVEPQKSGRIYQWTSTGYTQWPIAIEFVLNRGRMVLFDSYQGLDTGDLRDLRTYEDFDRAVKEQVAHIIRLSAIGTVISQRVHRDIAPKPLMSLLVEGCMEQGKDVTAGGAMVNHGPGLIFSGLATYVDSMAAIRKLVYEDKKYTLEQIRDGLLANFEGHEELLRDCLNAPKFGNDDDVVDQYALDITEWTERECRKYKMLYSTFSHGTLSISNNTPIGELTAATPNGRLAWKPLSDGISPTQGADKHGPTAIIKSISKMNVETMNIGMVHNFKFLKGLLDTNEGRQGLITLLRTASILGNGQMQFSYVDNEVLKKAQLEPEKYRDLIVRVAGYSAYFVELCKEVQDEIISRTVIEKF
Kind of assay: In Vitro TMA Inhibition. On the procedure: Choline TMA lyase enzymatic activity assays were conducted to measure the conversion of isotope-labeled d9-choline to d9-TMA. Upon thawing an aliquot of frozen clarified lysate on ice and gentle mixing, clarified lysate was diluted to 5 mg/mL in lysis buffer and the necessary co-factors were added (final concentration: 1 mM SAM, 10 mM NaDT, and 2 mM NADH). Potential inhibitor compounds (typically dissolved in H2O) were serially diluted (10-fold) and added to individual reaction mixtures (done in triplicate). The mixture was then allowed to incubate for at least 15 minutes at 22° C. before the addition of substrate (300 μM final d9-choline) to initiate the reaction, which was carried out for 2 hours at room temperature (22° C.) in the dark in gas tight sealed reaction vials. The reactions were quenched with the addition of 200 μL of 1 M NaOH and 0.5 μM of the internal standard ([13C3 15N1]TMA), vortexing and placement in ice. d9-TMA production was quantified using mass spectrometry by measuring the peak area ratio of the precursor to product ion transition of d9-TMA (m/z 69→49) to the internal standard [13C3 15N1]TMA (m/z 64→47).

The structures appear in SMILES notation.

By IC50 is commonly meant the concentration that inhibits the measured activity by half. In turn, `C[N+](C)(CF)CCOC(=O)c1ccc(O)cc1` [US20260001833, Compound 3] came in with an IC50 of 3.6 µM.
